Data as given in article PMC9782376 (2022).

Experiments:
[1] = test system: DBA (free dopamine binding aptamer) (DNA, aptamer) CGACGCCAGTTTGAAGGTTCGTTCGCAGGTGTGGAGTGACGTCG; conditions: conditions not stated
[2] = test system: aptananozyme III (amino-DBA with (TGTA) spacer (3) on Ce4+-ion-modified C-dots) (DNA, aptamer) TGTACGACGCCAGTTTGAAGGTTCGTTCGCAGGTGTGGAGTGACGTCG; assay: ITC; conditions: 100 mM NaCl, 5 mM MgCl2; 5 mM MES pH 5.5; aptamer immobilised on Ce4+-C-dots; 20 µM aptananozyme, 600 µM dopamine titrant
[3] = test system: aptananozyme IV (amino-DBA with (TGTA)2 spacer (4) on Ce4+-ion-modified C-dots) (DNA, aptamer) TGTATGTACGACGCCAGTTTGAAGGTTCGTTCGCAGGTGTGGAGTGACGTCG; assay: ITC; conditions: 100 mM NaCl, 5 mM MgCl2; 5 mM MES pH 5.5; aptamer immobilised on Ce4+-C-dots; 20 µM aptananozyme, 600 µM dopamine titrant
[4] = test system: aptananozyme V (amino-DBA with (TGTA)3 spacer (5) on Ce4+-ion-modified C-dots) (DNA, aptamer) TGTATGTATGTACGACGCCAGTTTGAAGGTTCGTTCGCAGGTGTGGAGTGACGTCG; assay: ITC; conditions: 100 mM NaCl, 5 mM MgCl2; 5 mM MES pH 5.5; aptamer immobilised on Ce4+-C-dots; 20 µM aptananozyme, 600 µM dopamine titrant

- Kd [1]: 720 ± 30 nM
- Kd [2]: 950 ± 30 nM
- Kd [3]: 880 ± 40 nM
- Kd [4]: 910 ± 100 nM
Structure (SMILES): NCCc1ccc(O)c(O)c1
